Key:
[1] = biological target: Serine/threonine-protein kinase Chk1 (Homo sapiens) (UniProt O14757); assay: Inhibition of CHEK1 (unknown origin) assessed as remaining activity at 10 uM by high-throughput assay relative to control
[2] = biological target: Cyclin-dependent kinase 3 (Homo sapiens) (UniProt Q00526); assay: Inhibition of CDK3 (unknown origin) assessed as remaining activity at 10 uM by high-throughput assay relative to control
[3] = biological target: Tyrosine-protein kinase ABL1 (Homo sapiens) (UniProt P00519); assay: Inhibition of ABL1 (unknown origin) assessed as remaining activity at 10 uM by high-throughput assay relative to control
[4] = biological target: Serine/threonine-protein kinase PAK 4 (Homo sapiens) (UniProt O96013); assay: Inhibition of PAK4 (unknown origin) assessed as remaining activity at 10 uM by high-throughput assay relative to control
[5] = biological target: Atypical kinase COQ8A, mitochondrial (Homo sapiens) (UniProt Q8NI60); assay: Inhibition of ADCK3 (unknown origin) assessed as remaining activity at 10 uM by high-throughput assay relative to control
[6] = biological target: Serine/threonine-protein kinase 32C (Homo sapiens) (UniProt Q86UX6); assay: Inhibition of YANK3 (unknown origin) assessed as remaining activity at 10 uM by high-throughput assay relative to control
[7] = biological target: Mitogen-activated protein kinase kinase kinase 4 (Homo sapiens) (UniProt Q9Y6R4); assay: Inhibition of MAP3K4 (unknown origin) assessed as remaining activity at 10 uM by high-throughput assay relative to control
[8] = biological target: Hepatocyte growth factor receptor (Homo sapiens) (UniProt P08581); assay: Inhibition of MET (unknown origin) assessed as remaining activity at 10 uM by high-throughput assay relative to control
[9] = biological target: Serine/threonine-protein kinase DCLK1 (Homo sapiens) (UniProt O15075); assay: Inhibition of DCAMKL1 (unknown origin) assessed as remaining activity at 10 uM by high-throughput assay relative to control
Sequence of Serine/threonine-protein kinase DCLK1 (Homo sapiens) (O15075 whole entry): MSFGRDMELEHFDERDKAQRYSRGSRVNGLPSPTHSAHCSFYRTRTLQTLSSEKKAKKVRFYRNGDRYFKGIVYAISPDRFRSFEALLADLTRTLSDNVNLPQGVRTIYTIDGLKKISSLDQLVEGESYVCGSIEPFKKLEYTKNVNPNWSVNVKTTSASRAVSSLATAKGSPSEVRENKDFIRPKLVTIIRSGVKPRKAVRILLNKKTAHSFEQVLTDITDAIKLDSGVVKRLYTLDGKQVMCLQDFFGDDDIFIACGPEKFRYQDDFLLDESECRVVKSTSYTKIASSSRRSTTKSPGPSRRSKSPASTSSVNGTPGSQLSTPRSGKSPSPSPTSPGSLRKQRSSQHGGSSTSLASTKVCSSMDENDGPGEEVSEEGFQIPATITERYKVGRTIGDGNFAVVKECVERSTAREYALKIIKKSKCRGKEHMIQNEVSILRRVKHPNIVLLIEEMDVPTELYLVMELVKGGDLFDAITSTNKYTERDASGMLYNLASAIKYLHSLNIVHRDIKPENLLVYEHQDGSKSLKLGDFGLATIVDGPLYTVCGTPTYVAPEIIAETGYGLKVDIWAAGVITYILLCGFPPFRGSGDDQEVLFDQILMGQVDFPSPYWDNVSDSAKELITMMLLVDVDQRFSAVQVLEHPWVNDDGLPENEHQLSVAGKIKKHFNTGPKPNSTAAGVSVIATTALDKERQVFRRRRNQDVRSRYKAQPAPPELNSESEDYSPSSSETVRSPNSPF

[10] = biological target: Proto-oncogene tyrosine-protein kinase receptor Ret (Homo sapiens) (UniProt P07949); assay: Inhibition of RET (unknown origin) assessed as remaining activity at 10 uM by high-throughput assay relative to control
[11] = biological target: Proto-oncogene tyrosine-protein kinase Src (Homo sapiens) (UniProt P12931); assay: Inhibition of SRC (unknown origin) assessed as remaining activity at 10 uM by high-throughput assay relative to control
[12] = biological target: Insulin receptor (Homo sapiens) (UniProt P06213); assay: Inhibition of INSR (unknown origin) assessed as remaining activity at 10 uM by high-throughput assay relative to control
[13] = biological target: Tyrosine-protein kinase BTK (Homo sapiens) (UniProt Q06187); assay: Inhibition of BTK (unknown origin) assessed as remaining activity at 10 uM by high-throughput assay relative to control
[14] = biological target: Inhibitor of nuclear factor kappa-B kinase subunit alpha (Homo sapiens) (UniProt O15111); assay: Inhibition of IKK-alpha (unknown origin) assessed as remaining activity at 10 uM by high-throughput assay relative to control
Sequence of Inhibitor of nuclear factor kappa-B kinase subunit alpha (Homo sapiens) (O15111 whole entry, canonical isoform): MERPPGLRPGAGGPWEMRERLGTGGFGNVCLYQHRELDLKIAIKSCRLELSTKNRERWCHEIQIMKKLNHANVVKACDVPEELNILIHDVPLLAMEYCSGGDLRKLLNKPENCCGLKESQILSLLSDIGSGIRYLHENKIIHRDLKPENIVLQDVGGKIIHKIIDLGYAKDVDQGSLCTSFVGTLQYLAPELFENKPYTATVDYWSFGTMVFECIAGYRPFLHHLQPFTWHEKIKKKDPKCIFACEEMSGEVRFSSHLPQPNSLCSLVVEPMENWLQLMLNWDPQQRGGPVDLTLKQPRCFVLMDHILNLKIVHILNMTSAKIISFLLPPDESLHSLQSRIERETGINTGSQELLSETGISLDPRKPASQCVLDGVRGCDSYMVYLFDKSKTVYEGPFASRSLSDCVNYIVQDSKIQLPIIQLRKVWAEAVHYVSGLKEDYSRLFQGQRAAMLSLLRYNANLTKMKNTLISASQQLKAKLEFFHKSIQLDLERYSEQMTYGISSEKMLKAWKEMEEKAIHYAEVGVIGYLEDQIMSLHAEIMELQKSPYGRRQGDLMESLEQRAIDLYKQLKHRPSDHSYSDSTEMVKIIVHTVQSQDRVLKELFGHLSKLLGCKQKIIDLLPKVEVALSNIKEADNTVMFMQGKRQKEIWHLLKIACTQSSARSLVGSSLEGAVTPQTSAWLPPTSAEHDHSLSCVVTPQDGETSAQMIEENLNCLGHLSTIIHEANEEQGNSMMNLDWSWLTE

[15] = biological target: Casein kinase I isoform delta (Homo sapiens) (UniProt P48730); assay: Inhibition of CSNK1D (unknown origin) assessed as remaining activity at 10 uM by high-throughput assay relative to control
Sequence of Casein kinase I isoform delta (Homo sapiens) (P48730 whole entry, looked up, canonical isoform): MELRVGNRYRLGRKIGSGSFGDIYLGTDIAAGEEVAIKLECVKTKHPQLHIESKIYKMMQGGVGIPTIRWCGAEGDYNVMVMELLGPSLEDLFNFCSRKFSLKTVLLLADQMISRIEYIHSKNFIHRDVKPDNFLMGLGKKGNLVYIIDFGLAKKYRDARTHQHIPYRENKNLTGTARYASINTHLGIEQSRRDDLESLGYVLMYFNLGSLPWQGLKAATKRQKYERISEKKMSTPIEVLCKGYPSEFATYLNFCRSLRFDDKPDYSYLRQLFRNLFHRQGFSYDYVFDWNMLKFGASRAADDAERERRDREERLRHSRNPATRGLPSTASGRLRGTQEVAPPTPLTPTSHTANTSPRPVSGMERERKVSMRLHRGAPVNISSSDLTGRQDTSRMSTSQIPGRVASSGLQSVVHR

[16] = biological target: Serine/threonine-protein kinase ULK2 (Homo sapiens) (UniProt Q8IYT8); assay: Inhibition of ULK2 (unknown origin) assessed as remaining activity at 10 uM by high-throughput assay relative to control
[17] = biological target: Rho-associated protein kinase 2 (Homo sapiens) (UniProt O75116); assay: Inhibition of ROCK2 (unknown origin) assessed as remaining activity at 10 uM by high-throughput assay relative to control
[18] = biological target: Macrophage colony-stimulating factor 1 receptor (Homo sapiens) (UniProt P07333); assay: Inhibition of CSF1R (unknown origin) assessed as remaining activity at 10 uM by high-throughput assay relative to control
[19] = biological target: Angiopoietin-1 receptor (Homo sapiens) (UniProt Q02763); assay: Inhibition of TIE2 (unknown origin) assessed as remaining activity at 10 uM by high-throughput assay relative to control
Sequence of Angiopoietin-1 receptor (Homo sapiens) (Q02763 whole entry): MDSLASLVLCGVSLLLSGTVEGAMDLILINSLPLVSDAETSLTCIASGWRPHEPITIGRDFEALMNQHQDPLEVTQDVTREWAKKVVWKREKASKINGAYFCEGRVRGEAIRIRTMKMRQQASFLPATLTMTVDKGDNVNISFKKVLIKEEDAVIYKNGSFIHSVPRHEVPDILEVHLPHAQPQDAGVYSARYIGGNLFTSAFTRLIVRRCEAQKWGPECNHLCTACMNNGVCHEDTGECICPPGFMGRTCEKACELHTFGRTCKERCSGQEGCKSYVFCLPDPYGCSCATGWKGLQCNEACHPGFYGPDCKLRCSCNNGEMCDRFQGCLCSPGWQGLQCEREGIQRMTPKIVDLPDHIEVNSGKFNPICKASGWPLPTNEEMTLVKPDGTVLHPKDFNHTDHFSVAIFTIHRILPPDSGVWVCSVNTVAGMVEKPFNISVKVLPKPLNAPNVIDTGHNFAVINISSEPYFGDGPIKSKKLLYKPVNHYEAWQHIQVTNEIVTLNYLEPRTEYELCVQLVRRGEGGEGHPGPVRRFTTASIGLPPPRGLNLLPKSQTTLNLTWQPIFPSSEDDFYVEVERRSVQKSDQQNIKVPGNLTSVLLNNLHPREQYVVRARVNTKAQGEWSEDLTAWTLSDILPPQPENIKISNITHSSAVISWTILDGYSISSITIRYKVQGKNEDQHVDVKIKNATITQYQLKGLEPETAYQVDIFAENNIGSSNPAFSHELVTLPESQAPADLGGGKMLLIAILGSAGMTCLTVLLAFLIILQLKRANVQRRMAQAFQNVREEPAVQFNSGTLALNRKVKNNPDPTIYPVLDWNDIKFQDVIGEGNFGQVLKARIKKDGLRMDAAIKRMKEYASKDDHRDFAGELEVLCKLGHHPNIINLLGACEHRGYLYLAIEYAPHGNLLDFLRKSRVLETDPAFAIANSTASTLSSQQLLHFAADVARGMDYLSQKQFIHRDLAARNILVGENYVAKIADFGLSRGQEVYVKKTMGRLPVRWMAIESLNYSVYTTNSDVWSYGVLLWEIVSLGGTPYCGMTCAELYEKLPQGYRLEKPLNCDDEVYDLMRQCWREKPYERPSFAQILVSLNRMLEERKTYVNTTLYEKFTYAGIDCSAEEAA

[20] = biological target: Platelet-derived growth factor receptor alpha (Homo sapiens) (UniProt P16234); assay: Inhibition of PDGFRA (unknown origin) assessed as remaining activity at 10 uM by high-throughput assay relative to control
[21] = biological target: Dual specificity mitogen-activated protein kinase kinase 1 (Homo sapiens) (UniProt Q02750); assay: Inhibition of MEK1 (unknown origin) assessed as remaining activity at 10 uM by high-throughput assay relative to control
Sequence of Dual specificity mitogen-activated protein kinase kinase 1 (Homo sapiens) (Q02750 whole entry): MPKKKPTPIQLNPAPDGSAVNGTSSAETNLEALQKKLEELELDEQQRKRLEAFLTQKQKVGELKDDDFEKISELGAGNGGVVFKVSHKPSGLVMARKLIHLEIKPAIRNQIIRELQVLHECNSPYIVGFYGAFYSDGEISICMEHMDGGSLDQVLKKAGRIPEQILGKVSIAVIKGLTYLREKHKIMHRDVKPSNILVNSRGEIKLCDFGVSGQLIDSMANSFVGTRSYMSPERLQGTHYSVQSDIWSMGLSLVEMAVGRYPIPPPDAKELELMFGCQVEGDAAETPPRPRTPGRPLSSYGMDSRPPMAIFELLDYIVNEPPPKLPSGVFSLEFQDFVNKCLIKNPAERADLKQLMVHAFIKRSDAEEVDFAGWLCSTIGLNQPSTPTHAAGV

[22] = biological target: MAP/microtubule affinity-regulating kinase 3 (Homo sapiens) (UniProt P27448); assay: Inhibition of MARK3 (unknown origin) assessed as remaining activity at 10 uM by high-throughput assay relative to control
[23] = biological target: Testis-specific serine/threonine-protein kinase 1 (Homo sapiens) (UniProt Q9BXA7); assay: Inhibition of TSSK1B (unknown origin) assessed as remaining activity at 10 uM by high-throughput assay relative to control
Sequence of Testis-specific serine/threonine-protein kinase 1 (Homo sapiens) (Q9BXA7 whole entry): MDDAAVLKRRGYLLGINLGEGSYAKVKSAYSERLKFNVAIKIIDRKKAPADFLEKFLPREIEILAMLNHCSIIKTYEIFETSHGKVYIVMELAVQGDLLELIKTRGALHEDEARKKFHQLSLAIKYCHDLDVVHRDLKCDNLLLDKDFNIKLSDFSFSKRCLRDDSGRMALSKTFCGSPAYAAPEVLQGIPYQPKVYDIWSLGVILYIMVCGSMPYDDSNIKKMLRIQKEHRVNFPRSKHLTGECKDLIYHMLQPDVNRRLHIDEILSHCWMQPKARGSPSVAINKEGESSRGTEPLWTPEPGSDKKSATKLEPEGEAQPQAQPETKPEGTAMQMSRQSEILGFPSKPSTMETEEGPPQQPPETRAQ

[24] = test system: Epidermal growth factor receptor (Homo sapiens), P00533 [L858R]; assay: Inhibition of EGFR L858R mutant (unknown origin) assessed as remaining activity at 10 uM by high-throughput assay relative to control; assay type: protein assay

Sequence of Serine/threonine-protein kinase Chk1 (Homo sapiens) (O14757 whole entry): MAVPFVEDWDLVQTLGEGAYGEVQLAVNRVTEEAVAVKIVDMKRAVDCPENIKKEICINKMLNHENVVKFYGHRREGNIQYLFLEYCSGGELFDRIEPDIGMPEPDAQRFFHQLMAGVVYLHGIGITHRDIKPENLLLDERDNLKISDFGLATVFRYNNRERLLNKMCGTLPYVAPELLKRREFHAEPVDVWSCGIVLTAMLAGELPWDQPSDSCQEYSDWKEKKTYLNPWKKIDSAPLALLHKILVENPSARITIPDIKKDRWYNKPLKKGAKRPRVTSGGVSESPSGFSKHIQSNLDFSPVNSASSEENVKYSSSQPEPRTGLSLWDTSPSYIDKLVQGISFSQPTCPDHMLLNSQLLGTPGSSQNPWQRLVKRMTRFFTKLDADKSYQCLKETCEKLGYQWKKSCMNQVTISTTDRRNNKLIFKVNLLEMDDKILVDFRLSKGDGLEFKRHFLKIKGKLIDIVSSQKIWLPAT
Sequence of Cyclin-dependent kinase 3 (Homo sapiens) (Q00526 whole entry, looked up): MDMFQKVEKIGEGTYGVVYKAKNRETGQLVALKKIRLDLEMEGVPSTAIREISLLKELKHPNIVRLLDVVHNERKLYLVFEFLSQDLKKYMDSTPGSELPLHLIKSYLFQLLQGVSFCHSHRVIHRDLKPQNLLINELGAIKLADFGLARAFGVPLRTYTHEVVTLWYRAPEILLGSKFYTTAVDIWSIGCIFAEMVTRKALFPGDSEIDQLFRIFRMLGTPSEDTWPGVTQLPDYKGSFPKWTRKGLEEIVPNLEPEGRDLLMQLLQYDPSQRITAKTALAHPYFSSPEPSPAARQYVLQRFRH

Activity [1]: 90%
Activity [2]: 91%
Activity [3]: 95%
Activity [4]: 98%
Activity [5]: 73%
Activity [6]: 78%
Activity [7]: 91%
Activity [8]: 64%
Activity [9]: 78%
Activity [10]: 74%
Activity [11]: 83%
Activity [12]: 72%
Activity [13]: 76%
Activity [14]: 65%
Activity [15]: 30%
Activity [16]: 59%
Activity [17]: 79%
Activity [18]: 77%
Activity [19]: 74%
Activity [20]: 66%
Activity [21]: 85%
Activity [22]: 90%
Activity [23]: 71%
Activity [24]: 90%
SMILES: O=C1c2ccccc2-c2c1oc1ccccc1c2=O

Reference: ChEMBL document CHEMBL3627674, “Discovery of wrightiadione as a novel template for the TrkA kinase inhibitors” (Bioorg Med Chem Lett, 2015)
